In patent US8546385B2, “Benzoic pyrrolopyridine derivatives” (Laboratoires FOURNIER SA, priority 2010, dated 2013):
Like-named read-outs stand apart in the source and are kept apart here.

Columns and labels:
[1] = biological target: hNurr1_RXRαFL (NURR-1/RXRα heterodimer) (Homo sapiens, UniProt P19793); assay: Transactivation test (luciferase reporter) in Cos-7 cells co-transfected with NURR-1-Gal4 and RXRα; type: cell-based
Method: The ability of the compounds according to the invention to behave as activators of the heterodimers formed by the NURR-1 nuclear receptor and the RXR nuclear receptors was measured, by means of an in vitro test. A transactivation test was used as a primary screening test. […] The transfections were performed using a chemical agent (Jet PEI). The transfected cells were distributed into 384-well plates and left to stand for 24 hours. After 24 hours, the culture medium was changed. […] After incubating overnight, the luciferase expression was measured after addition of “SteadyGlo” according to the manufacturer's instructions (Promega). […] The levels of induction were calculated relative to the basal activity of each heterodimer. The results were expressed as a percentage of the level of induction relative to the level of induction obtained with the reference (the level of induction of the reference is arbitrarily equal to 100%).

[2] = biological target: hNurr1_RXRγFL (NURR-1/RXRγ heterodimer) (Homo sapiens, UniProt P48443); assay: Transactivation test (luciferase reporter) in Cos-7 cells co-transfected with NURR-1-Gal4 and RXRγ; type: cell-based; conditions: percentage efficacy relative to the reference XCT0135908 at 2×10^−5 M (=100%), read-out: hNurr1_RXRγFL Eff (%)
Sequence of hNurr1_RXRγFL (NURR-1/RXRγ heterodimer) (P48443 whole entry, the tested form may be a part): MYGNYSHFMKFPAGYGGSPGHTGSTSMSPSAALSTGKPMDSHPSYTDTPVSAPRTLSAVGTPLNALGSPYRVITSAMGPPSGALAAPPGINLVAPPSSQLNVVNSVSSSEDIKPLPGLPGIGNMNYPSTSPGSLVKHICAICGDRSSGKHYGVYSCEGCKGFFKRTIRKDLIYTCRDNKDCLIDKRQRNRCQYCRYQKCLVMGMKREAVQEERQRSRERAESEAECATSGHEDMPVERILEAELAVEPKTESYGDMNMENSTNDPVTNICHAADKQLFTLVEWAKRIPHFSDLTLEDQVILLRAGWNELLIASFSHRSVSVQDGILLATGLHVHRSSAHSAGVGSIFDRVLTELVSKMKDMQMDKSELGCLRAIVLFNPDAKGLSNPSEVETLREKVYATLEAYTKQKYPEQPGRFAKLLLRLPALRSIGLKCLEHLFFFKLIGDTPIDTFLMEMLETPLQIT
Sequence of hNurr1_RXRγFL (NURR-1/RXRγ heterodimer) (P43354 whole entry partner, the tested form may be a part): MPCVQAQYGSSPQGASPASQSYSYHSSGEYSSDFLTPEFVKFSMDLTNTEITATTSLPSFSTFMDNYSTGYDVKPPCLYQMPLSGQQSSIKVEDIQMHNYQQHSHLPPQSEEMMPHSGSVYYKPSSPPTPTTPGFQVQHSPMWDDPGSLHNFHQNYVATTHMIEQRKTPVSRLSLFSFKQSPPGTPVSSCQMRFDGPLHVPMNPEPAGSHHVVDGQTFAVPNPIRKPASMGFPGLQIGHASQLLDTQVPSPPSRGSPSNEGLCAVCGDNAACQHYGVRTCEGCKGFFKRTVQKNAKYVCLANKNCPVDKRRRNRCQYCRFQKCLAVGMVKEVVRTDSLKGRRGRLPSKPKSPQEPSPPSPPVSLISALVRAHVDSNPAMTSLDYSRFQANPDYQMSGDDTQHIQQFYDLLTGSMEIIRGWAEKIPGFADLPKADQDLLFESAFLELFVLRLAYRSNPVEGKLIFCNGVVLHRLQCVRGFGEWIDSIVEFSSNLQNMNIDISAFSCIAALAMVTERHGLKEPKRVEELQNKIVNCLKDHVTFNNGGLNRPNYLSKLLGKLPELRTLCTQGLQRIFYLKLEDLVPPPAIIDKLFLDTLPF
Method: The ability of the compounds according to the invention to behave as activators of the heterodimers formed by the NURR-1 nuclear receptor and the RXR nuclear receptors was measured, by means of an in vitro test.
A transactivation test was used as a primary screening test. Cos-7 cells were co-transfected with a plasmid expressing a construct of the NURR-1-Ga14 human receptor, a plasmid expressing the RXR human receptor (RXRα or RXRγ receptor) and a reporter plasmid 5Gal4pGL3-TK-Luc. The transfections were performed using a chemical agent (Jet PEI).
The transfected cells were distributed into 384-well plates and left to stand for 24 hours.
After 24 hours, the culture medium was changed. The test products were added (final concentration of between 10^−4 and 3×10^−10 M) in the culture medium. After incubating overnight, the luciferase expression was measured after addition of “SteadyGlo” according to the manufacturer's instructions (Promega).
4-[[6-Methyl-2-phenyl-5-(2-propenyl)-4-pyrimidinyl]amino]benzoic acid (reference XCT0135908, described by Wallen-Mackenzie et al. 2003, Genes & Development 17: 3036-3047) at 2×10^−5 M (RXR agonist) was used as reference.
The levels of induction were calculated relative to the basal activity of each heterodimer. The results were expressed as a percentage of the level of induction relative to the level of induction obtained with the reference (the level of induction of the reference is arbitrarily equal to 100%).

[3] = percentage efficacy relative to the reference XCT0135908 at 2×10^−5 M (=100%), read-out: hNurr1_RXRαFL Eff (%)

Sequence of hNurr1_RXRαFL (NURR-1/RXRα heterodimer) (P19793 whole entry, the tested form may be a part): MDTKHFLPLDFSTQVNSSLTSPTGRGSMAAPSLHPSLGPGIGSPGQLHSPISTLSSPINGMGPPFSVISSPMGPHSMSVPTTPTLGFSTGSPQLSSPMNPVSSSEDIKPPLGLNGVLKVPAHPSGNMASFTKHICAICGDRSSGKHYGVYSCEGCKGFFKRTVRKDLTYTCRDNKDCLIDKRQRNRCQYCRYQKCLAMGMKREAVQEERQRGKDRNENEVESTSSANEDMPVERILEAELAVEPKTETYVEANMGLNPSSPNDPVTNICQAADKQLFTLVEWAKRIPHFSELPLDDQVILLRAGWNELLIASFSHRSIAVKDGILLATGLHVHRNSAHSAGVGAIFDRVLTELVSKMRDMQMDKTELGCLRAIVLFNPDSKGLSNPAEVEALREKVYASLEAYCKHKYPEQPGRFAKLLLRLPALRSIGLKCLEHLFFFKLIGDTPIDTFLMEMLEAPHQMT
Sequence of hNurr1_RXRαFL (NURR-1/RXRα heterodimer) (P43354 whole entry, further chain, the tested form may be a part): as the sequence (P43354 whole entry partner, the tested form may be a part) above

CC(C)(C)c1cccc(S(=O)(=O)n2c(Cc3ccc(F)c(C(=O)O)c3)cc3cc(C(F)(F)F)ncc32)c1 [Example 7, 5-[[1-[[3-(1,1-dimethylethyl)phenyl]sulfonyl]-5-(trifluoromethyl)-1H-pyrrolo[2,3-c]pyridin-2-yl]methyl]-2-fluorobenzoic acid]
Emax [1, 3]: 119%

CC(C)(C)c1cccc(S(=O)(=O)n2c(Cc3ccc(C(=O)O)s3)cc3nc(C(F)(F)F)ccc32)c1 [Example 1, 5-[[1-[[3-(1,1-dimethylethyl)phenyl]sulfonyl]-5-(trifluoromethyl)-1H-pyrrolo[3,2-b]pyridin-2-yl]methyl]thiophene-2-carboxylic acid]
Emax [2]: 64% | Emax [1, 3]: 67%

CN1CCOc2ccc(S(=O)(=O)n3c(Cc4ccc(C(=O)O)cc4)cc4cc(C(F)(F)F)ncc43)cc21 [Example 12, 4-[[1-[(3,4-dihydro-4-methyl-2H-1,4-benzoxazin-6-yl)sulfonyl]-5-(trifluoromethyl)-1H-pyrrolo[2,3-c]pyridin-2-yl]methyl]benzoic acid]
Emax [2]: 75% | Emax [1, 3]: 81%

CC(C)(C)c1cccc(S(=O)(=O)n2c(Cc3ccc(C(=O)NS(C)(=O)=O)cc3)cc3nc(C(F)(F)F)ccc32)c1 [Example 39, N-{4-[1-(3-tert-butylbenzenesulfonyl)-5-trifluoromethyl-1H-pyrrolo[3,2-b]pyridin-2-ylmethyl]benzoyl}methanesulfonamide]
Emax [1, 3]: 51%

Cc1c(Cc2ccc(C(=O)O)cc2)n(S(=O)(=O)c2cccc(C(C)(C)C)c2)c2ccc(C(F)(F)F)nc12 [Example 37, 4-[[1-[[3-(1,1-dimethylethyl)phenyl]sulfonyl]-3-methyl-5-(trifluoro-methyl)-1H-pyrrolo[3,2-b]pyridin-2-yl]methyl]benzoic acid]
Emax [1, 3]: 67%

CC(C)(C)c1cccc(S(=O)(=O)n2c(Cc3ccc(C(=O)O)cc3)cc3cc(C(F)(F)F)cnc32)c1 [Example 28, 4-[[1-[[3-(1,1-dimethylethyl)phenyl]sulfonyl]-5-(trifluoromethyl)-1H-pyrrolo[2,3-b]pyridin-2-yl]methyl]benzoic acid]
Emax [2]: 51% | Emax [1, 3]: 66%

CC(C)c1ccc(S(=O)(=O)n2c(Cc3ccc(C(=O)O)cc3)cc3cc(C(F)(F)F)ncc32)cc1 [Example 14, 4-[[1-[[4-(1-methylethyl)phenyl]sulfonyl]-5-(trifluoromethyl)-1H-pyrrolo[2,3-c]pyridin-2-yl]methyl]benzoic acid]
Emax [2]: 54% | Emax [1, 3]: 64%

CC(C)(C)c1cccc(S(=O)(=O)n2c(C(=O)c3ccc(C(=O)O)s3)cc3nc(C(F)(F)F)ccc32)c1 [Example 34, 5-{1-(3-(1,1-dimethylethyl)phenylsulfonyl)-5-trifluoromethyl-1H-pyrrolo[3,2-b]pyridine-2-carbonyl}thiophene-2-carboxylic acid]
Emax [1, 3]: 31%

CC(C)(C)c1cccc(S(=O)(=O)n2c(Cc3ccc(C(=O)O)cc3)cc3nc(C(F)(F)F)ccc32)c1 [Example 22, 4-[[1-[[3-(1,1-dimethylethyl)phenyl]sulfonyl]-5-(trifluoromethyl)-1H-pyrrolo[3,2-b]pyridin-2-yl]methyl]benzoic acid]
Emax [2]: 68% | Emax [1, 3]: 92%

CC(C)c1ccc(S(=O)(=O)n2c(Cc3ccc(C(=O)O)s3)cc3cc(Cl)cnc32)cc1 [Example 38, 5-[[1-[[4-(1,1-methylethyl)phenyl]sulfonyl]-5-chloro-1H-pyrrolo[2,3-b]pyridin-2-yl]methyl]thiophene-2-carboxylic acid]
Emax [1, 3]: 80%

CC(C)c1ccc(S(=O)(=O)n2c(Cc3ccc(C(=O)O)cc3)cc3cc(Cl)ncc32)cc1 [Example 20, 4-[[5-chloro-1-[[4-(1-methylethyl)phenyl]sulfonyl]-1H-pyrrolo[2,3-c]pyridin-2-yl]methyl]benzoic acid]
Emax [2]: 27% | Emax [1, 3]: 42%

CN1CCOc2ccc(S(=O)(=O)n3c(Cc4ccc(C(=O)O)cc4)cc4cc(C(F)(F)F)cnc43)cc21 [Example 18, 4-[[1-[(3,4-dihydro-4-methyl-2H-1,4-benzoxazin-6-yl)sulfonyl]-5-(trifluoromethyl)-1H-pyrrolo[2,3-b]pyridin-2-yl]methyl]benzoic acid]
Emax [2]: 69% | Emax [1, 3]: 62%

CC(C)c1ccc(S(=O)(=O)n2c(Cc3ccc(C(=O)O)cc3)cc3nc(C(F)(F)F)ccc32)cc1 [Example 16, 4-[1-(4-(1-methylethyl)phenylsulfonyl)-5-trifluoromethyl-1H-pyrrolo[3,2-b]pyridin-2-ylmethyl]benzoic acid]
Emax [2]: 53% | Emax [1, 3]: 68%

CC(C)(C)c1cccc(S(=O)(=O)n2c(C(O)c3ccc(C(=O)O)s3)cc3nc(C(F)(F)F)ccc32)c1 (stereo not shown) [Example 32, 5-{hydroxy[1-(3-(1,1-dimethylethyl)phenylsulfonyl)-5-trifluoromethyl-1H-pyrrolo[3,2-b]pyridin-2-yl]methyl}thiophene-2-carboxylic acid]
Emax [1, 3]: 84%

CCN(CC)C(=O)c1ccc(C(F)c2cc3nc(C(F)(F)F)ccc3n2S(=O)(=O)c2cccc(C(C)(C)C)c2)s1 (stereo not shown) [Example 33, 5-[[1-[[3-(1,1-dimethylethyl)phenyl]sulfonyl]-5-(trifluoromethyl)-1H-pyrrolo[3,2-b]pyridin-2-yl]fluoromethyl]-N,N-diethyl-2-thiophenecarboxamide]
Emax [1, 3]: 92%

CC(C)c1cccc(S(=O)(=O)n2c(Cc3ccc(C(=O)O)cc3)cc3cc(C(F)(F)F)cnc32)c1 [Example 25, 4-[[1-[[3-(1-methylethyl)phenyl]sulfonyl]-5-(trifluoromethyl)-1H-pyrrolo[2,3-b]pyridin-2-yl]methyl]benzoic acid]
Emax [2]: 52% | Emax [1, 3]: 57%

CC(C)(C)c1cccc(S(=O)(=O)n2c(Cc3nc(C(=O)O)cs3)cc3nc(C(F)(F)F)ccc32)c1 [Example 8, 2-[[1-[[3-(1,1-dimethylethyl)phenyl]sulfonyl]-5-(trifluoromethyl)-1H-pyrrolo[3,2-b]pyridin-2-yl]methyl]thiazole-4-carboxylic acid]
Emax [2]: 72% | Emax [1, 3]: 103%

CC(C)c1ccc(S(=O)(=O)n2c(Cc3ccc(C(=O)O)cc3)cc3cc(Cl)cnc32)cc1 [Example 31, 4-[[5-chloro-1-[[4-(1-methylethyl)phenyl]sulfonyl]-1H-pyrrolo[2,3-b]pyridin-2-yl]methyl]benzoic acid]
Emax [2]: 48% | Emax ([1]; COS-7, read-out: hNurr1_RXRαFL Eff (%), percentage efficacy relative to the reference XCT0135908 at 2×10^−5 M (=100%)): 63%

CC(C)(C)c1cccc(S(=O)(=O)n2c(Cc3cncc(C(=O)O)c3)cc3cc(C(F)(F)F)ncc32)c1 [Example 5, 5-[[1-[[3-(1,1-dimethylethyl)phenyl]sulfonyl]-5-(trifluoromethyl)-1H-pyrrolo[2,3-c]pyridin-2-yl]methyl]pyridine-3-carboxylic acid]
Emax [1, 3]: 94%

CC(C)(C)c1cccc(S(=O)(=O)n2c(Cc3cc(C(=O)O)co3)cc3cc(C(F)(F)F)ncc32)c1 [Example 4, 5-[[1-[[3-(1,1-dimethylethyl)phenyl]sulfonyl]-5-(trifluoromethyl)-1H-pyrrolo[2,3-c]pyridin-2-yl]methyl]furan-3-carboxylic acid]
Emax [1, 3]: 104%

CC(C)(C)c1cccc(S(=O)(=O)n2c(Cc3cccc(C(=O)O)c3)cc3cc(C(F)(F)F)ncc32)c1 [Example 2, 3-[[1-[[3-(1,1-dimethylethyl)phenyl]sulfonyl]-5-(trifluoromethyl)-1H-pyrrolo[2,3-c]pyridin-2-yl]methyl]-2-benzoic acid]
Emax [2]: 86% | Emax [1, 3]: 70%

CC(C)(C)c1cccc(S(=O)(=O)n2c(Cc3csc(C(=O)O)c3)cc3cc(C(F)(F)F)ncc32)c1 [Example 6, 4-[[1-[[3-(1,1-dimethylethyl)phenyl]sulfonyl]-5-(trifluoromethyl)-1H-pyrrolo[2,3-c]pyridin-2-yl]methyl]thiophene-2-carboxylic acid]
Emax [1, 3]: 137%
